From ChEMBL document CHEMBL1129863, “Synthesis and biological evaluation of 5,6-diarylimidazo[2.1-b]thiazole as selective COX-2 inhibitors” (Bioorg Med Chem Lett, 1997) come the findings set out here.

In data set [1] the target is T1, Prostaglandin G/H synthase 2 (Homo sapiens, UniProt P35354).
T1 sequence (P35354 whole entry): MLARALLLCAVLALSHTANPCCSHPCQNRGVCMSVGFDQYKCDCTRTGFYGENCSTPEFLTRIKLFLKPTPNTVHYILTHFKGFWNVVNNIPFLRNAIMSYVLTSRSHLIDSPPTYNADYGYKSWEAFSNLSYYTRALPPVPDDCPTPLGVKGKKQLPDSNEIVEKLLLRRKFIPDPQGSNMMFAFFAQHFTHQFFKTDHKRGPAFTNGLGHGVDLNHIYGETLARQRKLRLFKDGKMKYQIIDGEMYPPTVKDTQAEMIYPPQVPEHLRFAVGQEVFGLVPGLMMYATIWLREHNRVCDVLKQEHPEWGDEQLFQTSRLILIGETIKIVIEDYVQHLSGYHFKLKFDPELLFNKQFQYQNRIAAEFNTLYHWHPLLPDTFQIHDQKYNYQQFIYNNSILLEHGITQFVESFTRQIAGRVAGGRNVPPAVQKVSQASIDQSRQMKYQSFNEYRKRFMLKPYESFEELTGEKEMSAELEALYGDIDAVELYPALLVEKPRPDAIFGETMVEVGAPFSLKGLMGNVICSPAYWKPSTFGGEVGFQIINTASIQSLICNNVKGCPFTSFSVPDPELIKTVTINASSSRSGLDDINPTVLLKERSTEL
The format is cell-based, CHO.

For data set [2], the target named is T2, Prostaglandin G/H synthase 1 (Homo sapiens, UniProt P23219).
Description: In vitro inhibition of the production of PGE-2 in arachidonic acid stimulated chinese hamster ovary (CHO) cells transfected with human cyclooxygenase-1
The target of data set [3] is T1, Prostaglandin G/H synthase 2. Nature of the data set: (§1) In vivo ability to inhibit cyclooxygenase-2 enzyme in human whole blood was determined. The format is organism-based.
Data set [4] deals with Rattus norvegicus. Nature of the data set: Effective dose to inhibit carrageenan induced rat paw edema assay was determined. Type of data set: functional. (In general: Carrageenan injected into the paw causes an acute inflammation.)
The test system of data set [5] is Rattus norvegicus. Nature of the data set: GI tolerance when rats were dosed at 100 mg/kg for 10 days in GI permeability assay; High level of GI tolerance. The format is functional, organism-based. Further details: dose 100 mg/kg.
The nature of data set [6]: Maximum concentration in rats at 1 hr was determined when dosed at 20 mg/Kg perorally. Further details: dose 20 mg/Kg, route oral. The format is ADME, organism-based. Conditions: rat, in vivo, po.
Data set [7] addresses T2, Prostaglandin G/H synthase 1. Nature of the data set: In vivo ability to inhibit cyclooxygenase-1 enzyme in human whole blood was determined. Type of data set: organism-based.
Data set [8] has as its target Prostaglandin G/H synthase 2 (Homo sapiens, UniProt P35354). The data set is described as §1. The format is organism-based. The source holds these as a separate data set.
The species named for data set [9] is Rattus norvegicus. Nature of the data set: animal or person. Conditions: read-out: Inhibition.
Description: Percentage inhibition against carrageenan induced rat paw edema assay was determined at a dose of 10 mg/Kg

T2 sequence (P23219 whole entry): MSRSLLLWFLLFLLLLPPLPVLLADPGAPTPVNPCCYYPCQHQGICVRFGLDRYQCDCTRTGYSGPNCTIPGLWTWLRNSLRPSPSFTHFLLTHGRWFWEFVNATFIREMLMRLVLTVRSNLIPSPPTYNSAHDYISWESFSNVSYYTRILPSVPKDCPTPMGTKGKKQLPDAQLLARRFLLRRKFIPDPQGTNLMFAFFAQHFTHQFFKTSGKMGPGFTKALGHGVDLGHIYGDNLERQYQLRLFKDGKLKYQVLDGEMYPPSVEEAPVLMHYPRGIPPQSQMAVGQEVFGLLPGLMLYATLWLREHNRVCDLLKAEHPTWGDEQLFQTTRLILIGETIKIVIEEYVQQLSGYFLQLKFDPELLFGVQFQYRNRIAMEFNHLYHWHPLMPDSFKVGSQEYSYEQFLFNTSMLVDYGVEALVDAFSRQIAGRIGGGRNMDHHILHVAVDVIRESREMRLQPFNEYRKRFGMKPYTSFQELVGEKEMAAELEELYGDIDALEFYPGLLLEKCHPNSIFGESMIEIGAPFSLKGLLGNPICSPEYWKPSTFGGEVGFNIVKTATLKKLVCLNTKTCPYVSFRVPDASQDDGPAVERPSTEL

As a reminder, the IC50 is the concentration needed to halve the response being measured. Low readings indicate inhibition by little substance, high ones a need for much substance. Regarding `Cc1csc2nc(-c3ccccc3)c(-c3ccc(S(C)(=O)=O)cc3)n12`, the 50% inhibitory concentration (IC50) in data set [1] is 3000 nM; in [2], > 50 µM.
`Cc1cn2c(-c3ccccc3)c(-c3ccc(S(C)(=O)=O)cc3)nc2s1`: the IC50 was 140 nM in data set [1] and > 50 µM in data set [2].
A word on the ED50: it is the dose at which the effect has come halfway, by size or by number of responders. Higher therefore signals weaker potency. A word on the Cmax: it is the peak of the concentration-time curve. Take `CS(=O)(=O)c1ccc(-c2c(-c3ccccc3)nc3sccn23)cc1`: the half-inhibitory concentration (IC50) in data set [1] was 16 nM; in data set [3] it was 900 nM; in [2], > 50 µM; in data set [7] it was > 30 µM. The 50% effect level in the data set with Rattus norvegicus [4] (ED50) was put at a dose of 2 mg/kg. Moreover, the GI tolerance result in the data set on Rattus norvegicus [5] is reported as “High level of GI tolerance”. This compound gave a Cmax in [6] of 1000 nM.
On to `CS(=O)(=O)c1ccc(-c2c(-c3ccccc3)nc3sc4ccccc4n23)cc1`, for which the IC50 in data set [1] is > 5000 nM; in [2], > 50 µM.
For the compound `Cc1cn2c(-c3ccc(S(C)(=O)=O)cc3)c(-c3ccccc3)nc2s1`, the IC50 in [1] is 12 nM; in data set [3] it was 17500 nM; in data set [2], > 50 µM.
On the same counts, the results for `CS(=O)(=O)c1ccc(-c2c(-c3ccc(F)c(F)c3)nc3sccn23)cc1` are 12 nM, 2200 nM and > 50 µM.
In the case of `CS(=O)(=O)c1ccc(-c2c(-c3ccc(Cl)cc3)nc3sc(Cl)cn23)cc1`, the IC50 in [1] is 16 nM; in data set [2] it was > 50 µM.
For `Cc1sc2nc(-c3ccc(S(C)(=O)=O)cc3)c(-c3ccccc3)n2c1C` the same measures were > 5000 nM and > 50 µM.
With `CS(=O)(=O)c1ccc(-c2nc3sccn3c2-c2ccccc2)cc1`, the half-maximal inhibitory concentration (IC50) was 3210 nM in data set [1] and > 50 µM in data set [2].
In the case of `CS(=O)(=O)c1ccc(-c2c(-c3ccc(F)cc3)nc3sccn23)cc1`, the IC50 in data set [1] was 14 nM; in [3] it was 400 nM; in [8] it was 25 µM; in data set [2], > 50 µM. Moreover, the ED50 with Rattus norvegicus [4] was 5 mg/kg.
With `CS(=O)(=O)c1ccc(-c2c(-c3ccccc3)nc3scc(CC(=O)O)n23)cc1`, the IC50 in data set [1] was > 5000 nM.
In turn, `CCOC(=O)Cc1csc2nc(-c3ccccc3)c(-c3ccc(S(C)(=O)=O)cc3)n12` displayed an IC50 in data set [1] of 900 nM.
For `CS(=O)(=O)c1ccc(-c2c(-c3ccc(Cl)cc3)nc3sc(Cl)c(Cl)n23)cc1`, the IC50 was 3600 nM in [1] and > 50 µM in data set [2].
Regarding `CSc1ccc(-c2c(-c3ccccc3)nc3sccn23)cc1`, the results for the IC50 in [1] and in data set [2] were 420 nM and 0.32 µM, respectively.
Turning to `Cc1csc2nc(-c3ccc(S(C)(=O)=O)cc3)c(-c3ccccc3)n12`, the results for the IC50 in data set [1] and in [2] were 1000 nM and > 50 µM, respectively.
Regarding `CS(=O)(=O)c1ccc(-c2cc(Br)sc2-c2ccc(F)cc2)cc1` [DUP-697], in the data set filed under Rattus norvegicus [9], the inhibition in vivo at 10 mg/kg stood at 57%.
Take `CS(=O)(=O)c1ccc(-c2nc3sc4ccccc4n3c2-c2ccccc2)cc1`: the results for the IC50 in data set [1] and in data set [2] were > 5000 nM and > 50 µM, respectively.
As for `Cc1sc2nc(-c3ccccc3)c(-c3ccc(S(C)(=O)=O)cc3)n2c1C`, the figures for the IC50 in [1] and in [2] were 5000 nM and > 50 µM, respectively.
Consider `CSc1ccc(-c2nc3sccn3c2-c2ccccc2)cc1`, for which the IC50 amounted to 5000 nM in [1] and 0.078 µM in data set [2].
